Measurements taken from ChEMBL document CHEMBL2401737 (J Med Chem, 2013).

Key:
[1] = tested on: Human immunodeficiency virus; experiment: Ratio of IC50 for pseudo Human immunodeficiency virus to IC50 for pseudo Human immunodeficiency virus in presence of human serum albumin; format: functional
[2] = tested on: Human immunodeficiency virus; experiment: Antiviral activity against pseudo Human immunodeficiency virus infected in HEK293T cells after 2 days; format: functional, organism-based; conditions: Human immunodeficiency virus 1, HEK-293T, 48 h
[3] = tested on: Human immunodeficiency virus; experiment: Antiviral activity against pseudo Human immunodeficiency virus infected in HEK293T cells after 2 days in presence of human serum albumin; format: functional, organism-based; conditions: Human immunodeficiency virus 1, HEK-293T, 48 h
[4] = tested on: Human immunodeficiency virus; experiment: Antiviral activity against Human immunodeficiency virus harboring integrase Q148K mutant infected in human HeLa cells expressing CD4 after 2 days by beta galactosidase assay relative to wild type HIV; format: functional
[5] = Clearance in iv dosed rat; format: ADME, organism-based; conditions: in vivo
[6] = Oral bioavailability in rat; format: ADME, organism-based; conditions: in vivo
[7] = molecular target: Human immunodeficiency virus type 1 integrase (Human immunodeficiency virus 1, UniProt Q7ZJM1); experiment: Inhibition of HIV-1 integrase strand transfer activity using [3H]-DNA as substrate preincubated for 60 mins prior to substrate addition measured after 25 to 45 mins
[8] = tested on: Human immunodeficiency virus 1; experiment: Antiviral activity against Human immunodeficiency virus 1 3B infected in human MT4 cells after 4 to 5 days by bioluminescence assay in presence of human serum relative to control; format: functional
[9] = tested on: Human immunodeficiency virus 1; experiment: Antiviral activity against Human immunodeficiency virus 1 3B infected in human MT4 cells after 4 to 5 days by bioluminescence assay; format: functional, organism-based
[10] = tested on: Human immunodeficiency virus 1; experiment: Antiviral activity against Human immunodeficiency virus 1 Ba-L infected human PBMC after 7 days by [methyl-3H]dTTP incorporation assay; format: functional, organism-based; conditions: 168 h

Chain of Human immunodeficiency virus type 1 integrase (Q7ZJM1 whole entry): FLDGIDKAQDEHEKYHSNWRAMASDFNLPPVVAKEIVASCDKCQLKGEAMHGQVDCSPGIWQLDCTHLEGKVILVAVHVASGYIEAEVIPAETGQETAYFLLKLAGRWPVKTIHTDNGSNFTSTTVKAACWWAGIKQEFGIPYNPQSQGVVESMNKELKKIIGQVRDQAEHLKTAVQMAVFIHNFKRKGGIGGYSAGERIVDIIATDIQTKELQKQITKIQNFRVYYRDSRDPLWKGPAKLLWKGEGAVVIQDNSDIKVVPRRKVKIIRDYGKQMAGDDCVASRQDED

## O=C(NCc1ccc(F)cc1F)c1cn2c(c(O)c1=O)C(=O)N1[C@H](Cc3ccccc3)CO[C@H]1C2
[1]
  Ratio IC50: >7
[2]
  IC50: 0.6 nM
[3]
  IC50: 4.5 nM
[4]
  fold change (FC): 19

## O=C(NCc1ccc(F)cc1F)c1cn2c(c(O)c1=O)C(=O)N1[C@@H](Cc3ccc(O)cc3)CO[C@@H]1C2
[2]
  IC50: 2.1 nM
[3]
  IC50: 22 nM
[4]
  fold change (FC): 1.6

## O=C(NCc1ccc(F)cc1F)c1cn2c(c(O)c1=O)C(=O)N1[C@@H](Cc3c[nH]c4ccccc34)CO[C@@H]1C2
[2]
  IC50: 1.6 nM
[3]
  IC50: 71 nM
[4]
  fold change (FC): 22

## O=C(NCc1ccc(F)cc1)c1cn2c(c(O)c1=O)C(=O)N1CCCO[C@H]1C2
[5]
  clearance: 0.1 mL/min/kg
[1]
  Ratio IC50: 43
[2]
  IC50: 1.9 nM
[3]
  IC50: 81 nM
[6]
  bioavailability: 79%
[4]
  fold change (FC): 2.4

## O=C(NCc1ccc(F)cc1)c1cn2c(c(O)c1=O)C(=O)N1CCCO[C@@H]1C2
[5]
  clearance: 0.17 mL/min/kg
[2]
  IC50: 2.2 nM
[3]
  IC50: 9.4 nM
[6]
  bioavailability: 52%
[4]
  fold change (FC): 11

## C[C@@H]1CCN2C(=O)c3c(O)c(=O)c(C(=O)NCc4ccc(F)cc4)cn3C[C@@H]2O1
[1]
  Ratio IC50: 12
[2]
  IC50: 2.1 nM
[3]
  IC50: 25 nM
[7]
  IC50: 5 nM

## C[C@H]1CCN2C(=O)c3c(O)c(=O)c(C(=O)NCc4ccc(F)cc4)cn3C[C@H]2O1
[2]
  IC50: 1.3 nM
[3]
  IC50: 3.3 nM

## C[C@@H]1CCN2C(=O)c3c(O)c(=O)c(C(=O)NCc4ccc(F)cc4F)cn3C[C@@H]2O1
[2]
  IC50: 0.9 nM
[3]
  IC50: 7 nM
[4]
  fold change (FC): 2.1

## C[C@H]1CCN2C(=O)c3c(O)c(=O)c(C(=O)NCc4ccc(F)cc4F)cn3C[C@H]2O1
[2]
  IC50: 0.5 nM
[3]
  IC50: 1.5 nM
[4]
  fold change (FC): 2.8

## CC[C@@H]1CCN2C(=O)c3c(O)c(=O)c(C(=O)NCc4ccc(F)cc4F)cn3C[C@@H]2O1
[2]
  IC50: 0.7 nM
[3]
  IC50: 9.4 nM
[4]
  fold change (FC): 4.6

## CC[C@H]1CCN2C(=O)c3c(O)c(=O)c(C(=O)NCc4ccc(F)cc4F)cn3C[C@H]2O1
[2]
  IC50: 0.5 nM
[3]
  IC50: 3.1 nM
[4]
  fold change (FC): 2.2

## CC(C)[C@@H]1CCN2C(=O)c3c(O)c(=O)c(C(=O)NCc4ccc(F)cc4F)cn3C[C@@H]2O1
[2]
  IC50: 2 nM
[3]
  IC50: 20 nM
[4]
  fold change (FC): 8.1

## CC(C)[C@H]1CCN2C(=O)c3c(O)c(=O)c(C(=O)NCc4ccc(F)cc4F)cn3C[C@H]2O1
[2]
  IC50: 0.7 nM
[3]
  IC50: 4.1 nM
[4]
  fold change (FC): 1.9

## COC[C@@H]1CCN2C(=O)c3c(O)c(=O)c(C(=O)NCc4ccc(F)cc4F)cn3C[C@@H]2O1
[1]
  Ratio IC50: 2
[2]
  IC50: 1.4 nM
[3]
  IC50: 2.3 nM
[4]
  fold change (FC): 5

## COC[C@H]1CCN2C(=O)c3c(O)c(=O)c(C(=O)NCc4ccc(F)cc4F)cn3C[C@H]2O1
[1]
  Ratio IC50: 2
[2]
  IC50: 0.4 nM
[3]
  IC50: 0.9 nM
[4]
  fold change (FC): 3.5

## O=C(NCc1ccc(F)cc1F)c1cn2c(c(O)c1=O)C(=O)N1CC[C@@H](c3ccccc3)O[C@H]1C2
[2]
  IC50: 5.6 nM
[3]
  IC50: 50 nM
[4]
  fold change (FC): 8.5

## C[C@@H]1CO[C@H]2Cn3cc(C(=O)NCc4ccc(F)cc4)c(=O)c(O)c3C(=O)N2C1
[2]
  IC50: 0.8 nM
[3]
  IC50: 210 nM
[4]
  fold change (FC): 36

## C[C@H]1CO[C@@H]2Cn3cc(C(=O)NCc4ccc(F)cc4)c(=O)c(O)c3C(=O)N2C1
[2]
  IC50: 0.7 nM
[3]
  IC50: 5.6 nM
[4]
  fold change (FC): 9.9

## C[C@H]1CO[C@@H]2Cn3cc(C(=O)NCc4ccc(F)cc4F)c(=O)c(O)c3C(=O)N2C1
[2]
  IC50: 0.5 nM
[3]
  IC50: 5.2 nM
[4]
  fold change (FC): 5.7

## CC1(C)CO[C@@H]2Cn3cc(C(=O)NCc4ccc(F)cc4)c(=O)c(O)c3C(=O)N2C1
[2]
  IC50: 2 nM
[3]
  IC50: 7.9 nM
[4]
  fold change (FC): 8.1

## CC1(C)CO[C@H]2Cn3cc(C(=O)NCc4ccc(F)cc4)c(=O)c(O)c3C(=O)N2C1
[2]
  IC50: 1.1 nM
[3]
  IC50: 440 nM
[4]
  fold change (FC): 3.6

## C[C@H]1CCO[C@@H]2Cn3cc(C(=O)NCc4ccc(F)cc4F)c(=O)c(O)c3C(=O)N12
[2]
  IC50: 0.5 nM
[3]
  IC50: 4 nM
[4]
  fold change (FC): 2.2

## C[C@H]1CO[C@@H]2Cn3cc(C(=O)NCc4ccc(F)cc4)c(=O)c(O)c3C(=O)N12
[2]
  IC50: 2.1 nM
[3]
  IC50: 50 nM
[4]
  fold change (FC): 13

## C[C@@H]1CO[C@H]2Cn3cc(C(=O)NCc4ccc(F)cc4F)c(=O)c(O)c3C(=O)N12
[1]
  Ratio IC50: >7
[2]
  IC50: 5.4 nM
[3]
  IC50: 39 nM
[4]
  fold change (FC): 35

## CC[C@H]1CO[C@@H]2Cn3cc(C(=O)NCc4ccc(F)cc4F)c(=O)c(O)c3C(=O)N12
[2]
  IC50: 0.9 nM
[3]
  IC50: 63 nM

## CC[C@@H]1CO[C@H]2Cn3cc(C(=O)NCc4ccc(F)cc4F)c(=O)c(O)c3C(=O)N12
[2]
  IC50: 8.5 nM
[3]
  IC50: 35 nM
[4]
  fold change (FC): 63

## CC(C)[C@H]1CO[C@@H]2Cn3cc(C(=O)NCc4ccc(F)cc4F)c(=O)c(O)c3C(=O)N12
[2]
  IC50: 4.8 nM
[3]
  IC50: 300 nM
[4]
  fold change (FC): 100

## CC(C)[C@@H]1CO[C@H]2Cn3cc(C(=O)NCc4ccc(F)cc4F)c(=O)c(O)c3C(=O)N21
[2]
  IC50: 4 nM
[3]
  IC50: 16 nM
[4]
  fold change (FC): 73

## CC[C@H](C)[C@H]1CO[C@@H]2Cn3cc(C(=O)NCc4ccc(F)cc4F)c(=O)c(O)c3C(=O)N12
[2]
  IC50: 20 nM
[3]
  IC50: 200 nM
[4]
  fold change (FC): 200

## CC(C)(C)[C@H]1CO[C@@H]2Cn3cc(C(=O)NCc4ccc(F)cc4)c(=O)c(O)c3C(=O)N21
[2]
  IC50: 4 nM
[3]
  IC50: 35 nM
[4]
  fold change (FC): 74

## CC(C)(C)[C@H]1CO[C@@H]2Cn3cc(C(=O)NCc4ccc(F)cc4F)c(=O)c(O)c3C(=O)N21
[2]
  IC50: 20 nM
[3]
  IC50: 130 nM
[4]
  fold change (FC): 130

## CC(C)C[C@@H]1CO[C@H]2Cn3cc(C(=O)NCc4ccc(F)cc4F)c(=O)c(O)c3C(=O)N12
[2]
  IC50: 3.2 nM
[3]
  IC50: 16 nM
[4]
  fold change (FC): 51

## CCCC[C@H]1CO[C@@H]2Cn3cc(C(=O)NCc4ccc(F)cc4F)c(=O)c(O)c3C(=O)N12
[2]
  IC50: 87 nM
[3]
  IC50: 1800 nM
[4]
  fold change (FC): >57

## O=C(NCc1ccc(F)cc1F)c1cn2c(c(O)c1=O)C(=O)N1[C@@H](CC3CCCCC3)CO[C@@H]1C2
[2]
  IC50: 330 nM
[3]
  IC50: 3100 nM
[4]
  fold change (FC): >15

## O=C(NCc1ccc(F)cc1F)c1cn2c(c(O)c1=O)C(=O)N1[C@@H](CO)CO[C@@H]1C2
[2]
  IC50: 10 nM
[3]
  IC50: 37 nM
[4]
  fold change (FC): 12

## CSCC[C@H]1CO[C@@H]2Cn3cc(C(=O)NCc4ccc(F)cc4F)c(=O)c(O)c3C(=O)N12
[2]
  IC50: 3.1 nM
[3]
  IC50: 18 nM

## CS(=O)(=O)CC[C@H]1CO[C@@H]2Cn3cc(C(=O)NCc4ccc(F)cc4F)c(=O)c(O)c3C(=O)N12
[2]
  IC50: 430 nM
[3]
  IC50: 370 nM
[4]
  fold change (FC): >10

## O=C(NCc1ccc(F)cc1F)c1cn2c(c(O)c1=O)C(=O)N1[C@@H](c3ccccc3)CO[C@@H]1C2
[2]
  IC50: 72 nM
[3]
  IC50: 620 nM
[4]
  fold change (FC): 44

## O=C(NCc1ccc(F)cc1F)c1cn2c(c(O)c1=O)C(=O)N1[C@@H](Cc3ccccc3)CO[C@@H]1C2
[2]
  IC50: 13 nM
[3]
  IC50: 380 nM
[4]
  fold change (FC): 13

## O=C(NCc1ccc(F)cc1)c1cn2c(c(O)c1=O)C(=O)N1CCCOC1C2 (racemic)
[5]
  clearance: 0.1 mL/min/kg
[2]
  IC50: 1.9 nM
[3]
  IC50: 20 nM
[6]
  bioavailability: 51%
[4]
  fold change (FC): 2.8

## C[C@@H]1CCO[C@H]2Cn3cc(C(=O)NCc4ccc(F)cc4F)c(=O)c(O)c3C(=O)N12 [DOLUTEGRAVIR]
[8]
  fold change (FC): 75
[9]
  IC50: 2 nM
[2]
  IC50: 1.7 nM
[3]
  IC50: 22 nM
  IC90: 0.0374 µg/mL
[10]
  IC50: 0.5 nM
[4]
  fold change (FC): 0.4

## Cc1nnc(C(=O)NC(C)(C)c2nc(C(=O)NCc3ccc(F)cc3)c([O-])c(=O)n2C)o1.[K+] [RALTEGRAVIR POTASSIUM]
[1]
  Ratio IC50: 77
[2]
  IC50: 2 nM
[3]
  IC50: 7.1 nM
[4]
  fold change (FC): 79
